From patent publication US10584104B2, “Carboxylic acid URAT1 inhibitor containing diarylmethane structure, preparation method and use thereof” (TIANJIN INSTITUTE OF PHARMACEUTICAL RESEARCH CO., LTD., priority 2015, dated 2020) come the findings set out here.

Test [1] addresses T1, URAT1 (Homo sapiens (Human), UniProt Q96S37). The test can be described thus: Inhibition of [8-14C] uric acid uptake by HEK293 cells stably expressing URAT1, test compounds at 10 μM. In kind it is cell-based. Here is the method:
(I) Inhibitory Experiment of the Test Compounds at a Concentration of 10 μM on URAT1 After trypsin digestion, the expression cells (HEK293) stably expressing URAT1 gene and mock cells were all inoculated into lysine-coated 24-well culture plates, with the cell inoculation density being 1×10^5 cells/well, and cultured in incubator at 37° C., 5% CO2 and saturated humidity for 2 days. […] After 2 min, the reaction was terminated with ice-bathed DPBS buffer solution and washing was carried out for three times. […]
wherein, control=the intensity of radioactivity corresponding to the well without the test compound test compound=the intensity of radioactivity corresponding to the well with the test compound mock=the intensity of radioactivity corresponding to the well of blank cells untransfected with URAT1

The target in test [2] is T1, URAT1. The test can be described thus: IC50 for inhibition of the test compounds on URAT1 (nine concentration points, 0.001-10 μM). Conditions: HEK293 cells stably expressing URAT1; [8-14C] uric acid uptake; nine concentrations 0.001-10 μM.
The mark [3] stands for this setting: HEK293, read-out: Inhibition rate (%).
The mark [4] stands for this setting: 10 μM test compound, HEK293 cells stably expressing URAT1, 30 μM [8-14C] uric acid, 2 min.
The mark [5] stands for this setting: 10 μM test compound, HEK293 cells stably expressing URAT1, 30 μM [8-14C] uric acid, 2 min, read-out: Inhibition rate (%).

Read-outs that look alike come from different tables or passages of the source.

T1 sequence (Q96S37 whole entry): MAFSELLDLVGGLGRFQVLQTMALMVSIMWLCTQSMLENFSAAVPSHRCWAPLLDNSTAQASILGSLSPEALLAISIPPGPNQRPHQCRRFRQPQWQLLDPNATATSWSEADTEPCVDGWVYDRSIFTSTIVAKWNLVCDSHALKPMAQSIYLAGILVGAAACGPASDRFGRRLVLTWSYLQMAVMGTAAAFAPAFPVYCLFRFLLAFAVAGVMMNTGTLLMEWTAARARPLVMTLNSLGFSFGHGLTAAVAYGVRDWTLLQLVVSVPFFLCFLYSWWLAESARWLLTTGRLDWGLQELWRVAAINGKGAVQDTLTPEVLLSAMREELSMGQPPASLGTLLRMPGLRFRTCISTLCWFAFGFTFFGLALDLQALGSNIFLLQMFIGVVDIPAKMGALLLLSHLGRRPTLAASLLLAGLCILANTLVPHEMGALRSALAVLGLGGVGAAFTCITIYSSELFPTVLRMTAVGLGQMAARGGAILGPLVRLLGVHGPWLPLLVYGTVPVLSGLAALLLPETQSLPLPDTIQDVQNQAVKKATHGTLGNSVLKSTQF

By inhibition is commonly meant the percentage by which the read-out fell short of the control. Regarding `CC(C)(Sc1nnc(Br)n1-c1ccc(C2CC2)c2ccccc12)C(=O)O` [Compound A, reference compound], on URAT1 [1] (setting [3]), the inhibition at 10 µM was 55%.

Take `O=C(O)CCc1nnc(Br)n1-c1ccc(C2CC2)c2ccccc12` [Compound B, reference compound]: the inhibition at 10 µM at URAT1 [1] (setting [3]) is 50%.

One may read the IC50 as the concentration that gives 50% inhibition. Regarding `O=C(O)CSc1nnc(Br)n1Cc1ccc(C2CC2)c2ccccc12` [Compound of Example 1], the “Inhibition rate (%)” value at URAT1 [1] (setting [4]) came out at 90%. In addition, half-maximal inhibition on URAT1 [2] (IC50) was put at 0.201 µM.

Consider `O=C(O)CCc1nnc(Br)n1Cc1ccc(C2CC2)c2ccccc12` [Compound of Example 2], for which the “Inhibition rate (%)” value at URAT1 [1] (setting [4]) came to 91%. This molecule returned an IC50 at URAT1 [2] of 0.193 µM.

Take `O=C(O)CSc1nncn1Cc1ccc(C2CC2)c2ccccc12` [Compound of Example 3]: the inhibition at 10 µM at URAT1 [1] (setting [5]) is 60%.

Consider `O=C(O)CSc1nnc(F)n1Cc1ccc(C2CC2)c2ccccc12` [Compound of Example 4], for which the inhibition at 10 µM on URAT1 [1] (setting [5]) is 62%.

With `O=C(O)CSc1nnc(Cl)n1Cc1ccc(C2CC2)c2ccccc12` [Compound of Example 5], the inhibition at 10 µM at URAT1 [1] (setting [5]) came to 76%. At URAT1 [2], this molecule came in with an IC50 of 0.418 µM.

On to `O=C(O)CSc1nnc(I)n1Cc1ccc(C2CC2)c2ccccc12` [Compound of Example 6], for which the inhibition at 10 µM at URAT1 [1] (setting [5]) came out at 78%. The same molecule yielded an IC50 at URAT1 [2] of 0.44 µM.

As for `O=C(O)CSc1nnc(Br)n1Cc1cccc2ccccc12` [Compound of Example 7], the inhibition at 10 µM on URAT1 [1] (setting [5]) stood at 83%.

With `Cc1ccc(Cn2c(Br)nnc2SCC(=O)O)c2ccccc12` [Compound of Example 8], the inhibition at 10 µM on URAT1 [1] (setting [5]) was 83%.

As for `CCc1ccc(Cn2c(Br)nnc2SCC(=O)O)c2ccccc12` [Compound of Example 9], the inhibition at 10 µM on URAT1 [1] (setting [5]) came out at 84%.

In the case of `CCCc1ccc(Cn2c(Br)nnc2SCC(=O)O)c2ccccc12` [Compound of Example 10], the inhibition at 10 µM at URAT1 [1] (setting [5]) is 85%. The IC50 at URAT1 [2] amounted to 0.094 µM.

Consider `CC(C)c1ccc(Cn2c(Br)nnc2SCC(=O)O)c2ccccc12` [Compound of Example 11], for which, at URAT1 [1] (setting [5]), the inhibition at 10 µM amounted to 91%. Also, at URAT1 [2], the midpoint of inhibition, the IC50, lay at 0.484 µM.

On to `O=C(O)CSc1nnc(Br)n1Cc1ccc(F)c2ccccc12` [Compound of Example 12], for which, on URAT1 [1] (setting [5]), the inhibition at 10 µM is 76%.

For `O=C(O)CSc1nnc(Br)n1Cc1ccc(Cl)c2ccccc12` [Compound of Example 13], the inhibition at 10 µM on URAT1 [1] (setting [5]) was 75%.

Regarding `N#Cc1ccc(Cn2c(Br)nnc2SCC(=O)O)c2ccccc12` [Compound of Example 14], at URAT1 [1] (setting [5]), the inhibition at 10 µM turned out to be 84%.

For `O=C(O)CSc1nnc(Br)n1Cc1ccc([N+](=O)[O-])c2ccccc12` [Compound of Example 15], the inhibition at 10 µM on URAT1 [1] (setting [5]) worked out at 70%.

Turning to `COc1ccc(Cn2c(Br)nnc2SCC(=O)O)c2ccccc12` [Compound of Example 16], the inhibition at 10 µM on URAT1 [1] (setting [5]) was 81%.

Turning to `CC(C)(Sc1nnc(Br)n1Cc1ccc(C2CC2)c2ccccc12)C(=O)O` [Compound of Example 17], on URAT1 [1] (setting [5]), the inhibition at 10 µM amounted to 93%. The IC50 on URAT1 [2] was 1.02 µM.

On to `CC(C)(Sc1nncn1Cc1ccc(C2CC2)c2ccccc12)C(=O)O` [Compound of Example 18], for which the inhibition at 10 µM at URAT1 [1] (setting [5]) was found to be 78%.

On to `CC(C)(Sc1nnc(F)n1Cc1ccc(C2CC2)c2ccccc12)C(=O)O` [Compound of Example 19], for which, on URAT1 [1] (setting [5]), the inhibition at 10 µM is 82%.

For `CC(C)(Sc1nnc(Cl)n1Cc1ccc(C2CC2)c2ccccc12)C(=O)O` [Compound of Example 20], at URAT1 [1] (setting [5]), the inhibition at 10 µM was 86%. Besides, half-maximal inhibition against URAT1 [2] (IC50) was put at 0.886 µM.

Turning to `CC(C)(Sc1nnc(I)n1Cc1ccc(C2CC2)c2ccccc12)C(=O)O` [Compound of Example 21], the inhibition at 10 µM on URAT1 [1] (setting [5]) turned out to be 82%.

For `CC(C)(Sc1nnc(Br)n1Cc1cccc2ccccc12)C(=O)O` [Compound of Example 22], the inhibition at 10 µM on URAT1 [1] (setting [5]) worked out at 77%.

As for `Cc1ccc(Cn2c(Br)nnc2SC(C)(C)C(=O)O)c2ccccc12` [Compound of Example 23], the inhibition at 10 µM on URAT1 [1] (setting [5]) is 83%.

As for `CCc1ccc(Cn2c(Br)nnc2SC(C)(C)C(=O)O)c2ccccc12` [Compound of Example 24], the inhibition at 10 µM at URAT1 [1] (setting [5]) came out at 84%.

Regarding `CCCc1ccc(Cn2c(Br)nnc2SC(C)(C)C(=O)O)c2ccccc12` [Compound of Example 25], on URAT1 [1] (setting [5]), the inhibition at 10 µM is 80%. Besides, inhibition at URAT1 [2] was half-maximal at 1.01 µM (IC50).

Take `CC(C)c1ccc(Cn2c(Br)nnc2SC(C)(C)C(=O)O)c2ccccc12` [Compound of Example 26]: the inhibition at 10 µM on URAT1 [1] (setting [5]) is 91%.

Take `CC(C)(Sc1nnc(Br)n1Cc1ccc(F)c2ccccc12)C(=O)O` [Compound of Example 27]: the inhibition at 10 µM on URAT1 [1] (setting [5]) came to 83%.

Regarding `CC(C)(Sc1nnc(Br)n1Cc1ccc(Cl)c2ccccc12)C(=O)O` [Compound of Example 28], on URAT1 [1] (setting [5]), the inhibition at 10 µM came to 77%.

For the molecule `CC(C)(Sc1nnc(Br)n1Cc1ccc(C#N)c2ccccc12)C(=O)O` [Compound of Example 29], on URAT1 [1] (setting [5]), the inhibition at 10 µM was determined as 89%.

For the molecule `CC(C)(Sc1nnc(Br)n1Cc1ccc([N+](=O)[O-])c2ccccc12)C(=O)O` [Compound of Example 30], at URAT1 [1] (setting [5]), the inhibition at 10 µM amounted to 81%.

`COc1ccc(Cn2c(Br)nnc2SC(C)(C)C(=O)O)c2ccccc12` [Compound of Example 31]: the inhibition at 10 µM at URAT1 [1] (setting [5]) was determined as 84%.

As to `O=C(O)CCc1nncn1Cc1ccc(C2CC2)c2ccccc12` [Compound of Example 32], at URAT1 [1] (setting [5]), the inhibition at 10 µM was determined as 67%.

Turning to `O=C(O)CCc1nnc(F)n1Cc1ccc(C2CC2)c2ccccc12` [Compound of Example 33], the inhibition at 10 µM on URAT1 [1] (setting [5]) came to 68%.

On to `O=C(O)CCc1nnc(Cl)n1Cc1ccc(C2CC2)c2ccccc12` [Compound of Example 34], for which, at URAT1 [1] (setting [5]), the inhibition at 10 µM worked out at 88%.

Take `O=C(O)CCc1nnc(I)n1Cc1ccc(C2CC2)c2ccccc12` [Compound of Example 35]: the inhibition at 10 µM at URAT1 [1] (setting [5]) was 84%.

In the case of `Cc1ccc(Cn2c(Br)nnc2CCC(=O)O)c2ccccc12` [Compound of Example 36], the inhibition at 10 µM on URAT1 [1] (setting [5]) stood at 82%.

For the molecule `CCc1ccc(Cn2c(Br)nnc2CCC(=O)O)c2ccccc12` [Compound of Example 37], on URAT1 [1] (setting [5]), the inhibition at 10 µM stood at 84%.

On to `CCCc1ccc(Cn2c(Br)nnc2CCC(=O)O)c2ccccc12` [Compound of Example 38], for which the inhibition at 10 µM on URAT1 [1] (setting [5]) stood at 86%. Further, half-maximal inhibition at URAT1 [2] (IC50) required 0.107 µM.

For the molecule `CC(C)c1ccc(Cn2c(Br)nnc2CCC(=O)O)c2ccccc12` [Compound of Example 39], on URAT1 [1] (setting [5]), the inhibition at 10 µM is 92%. At URAT1 [2], this molecule showed an IC50 of 0.381 µM.

As for `N#Cc1ccc(Cn2c(Br)nnc2CCC(=O)O)c2ccccc12` [Compound of Example 40], the inhibition at 10 µM at URAT1 [1] (setting [5]) came to 92%.

Regarding `CC(C)(Cc1nnc(Br)n1Cc1ccc(C2CC2)c2ccccc12)C(=O)O` [Compound of Example 41], the inhibition at 10 µM on URAT1 [1] (setting [5]) was determined as 94%.

Turning to `CC(C)(Cc1nncn1Cc1ccc(C2CC2)c2ccccc12)C(=O)O` [Compound of Example 42], the inhibition at 10 µM on URAT1 [1] (setting [5]) is 71%.

In the case of `CC(C)(Cc1nnc(F)n1Cc1ccc(C2CC2)c2ccccc12)C(=O)O` [Compound of Example 43], at URAT1 [1] (setting [5]), the inhibition at 10 µM was 80%.

Consider `CC(C)(Cc1nnc(Cl)n1Cc1ccc(C2CC2)c2ccccc12)C(=O)O` [Compound of Example 44], for which, at URAT1 [1] (setting [5]), the inhibition at 10 µM was 81%.

For `CC(C)(Cc1nnc(I)n1Cc1ccc(C2CC2)c2ccccc12)C(=O)O` [Compound of Example 45], the inhibition at 10 µM at URAT1 [1] (setting [5]) is 82%.

As to `Cc1ccc(Cn2c(Br)nnc2CC(C)(C)C(=O)O)c2ccccc12` [Compound of Example 46], at URAT1 [1] (setting [5]), the inhibition at 10 µM is 84%.

As for `CCc1ccc(Cn2c(Br)nnc2CC(C)(C)C(=O)O)c2ccccc12` [Compound of Example 47], on URAT1 [1] (setting [5]), the inhibition at 10 µM stood at 85%.

With `CCCc1ccc(Cn2c(Br)nnc2CC(C)(C)C(=O)O)c2ccccc12` [Compound of Example 48], the inhibition at 10 µM on URAT1 [1] (setting [5]) stood at 85%. The molecule further displayed an IC50 at URAT1 [2] of 0.512 µM.

In the case of `CC(C)c1ccc(Cn2c(Br)nnc2CC(C)(C)C(=O)O)c2ccccc12` [Compound of Example 49], at URAT1 [1] (setting [5]), the inhibition at 10 µM was 93%. The same molecule registered an IC50 at URAT1 [2] of 0.487 µM.

For `CC(C)(Cc1nnc(Br)n1Cc1ccc(C#N)c2ccccc12)C(=O)O` [Compound of Example 50], on URAT1 [1] (setting [5]), the inhibition at 10 µM worked out at 92%.

As for `O=C(O)CCc1nnc(Br)n1Cc1ccc(Br)c2ccccc12` [Compound of Example 52], the inhibition at 10 µM on URAT1 [1] (setting [5]) was found to be 93%. The molecule also showed an IC50 against URAT1 [2] of 0.083 µM.
